# According to the supplement of paper PMC7455731:
# Assay: collision cross section (DTIM-MS, N2); higher = larger ion
# Procedure: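 Collision cross section (CCS) of drug and natural-product chemical standards (validation set 2, measured in this paper). Three independent measurements were made across 2 months; the value taken is their mean (avg_ccs), for the ion adduct given.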
SMILES,collision cross section (ion adduct: [M+H]+) [Å²],collision cross section (ion adduct: [M-H]-) [Å²]
C=C1C(=O)O[C@H]2[C@H]1CC/C(C)=C\CC[C@@]1(C)O[C@@H]21 [Parthenolide],154.23,
C=C(C)C1CC=C(C=NO)CC1 (centres undefined) [Perillartine],138.73,
c1ccc2c(c1)Nc1ccccc1S2 [Phenothiazine],,140.54
O=C(CCc1ccc(O)cc1)c1c(O)cc(O)cc1O[C@@H]1O[C@H](CO)[C@@H](O)[C@H](O)[C@H]1O [Phlorizin],,193.11
C[C@@H]1C/C=C/C=C/C=C/C=C/[C@H](O[C@@H]2O[C@H](C)[C@@H](O)[C@H](N)[C@@H]2O)C[C@@H]2O[C@](O)(C[C@@H](O)C[C@H]3O[C@@H]3/C=C/C(=O)O1)C[C@H](O)[C@H]2C(=O)O [Pimaricin],261.06,262.32
O=C1C[C@@H](c2ccccc2)Oc2cc(O)cc(O)c21 [Pinocembrin],157.96,159.74
COc1cc(O)cc(/C=C/c2ccc(O)cc2)c1 [Pinostilbene],160.07,166.26
O=C(/C=C/C=C/c1ccc2c(c1)OCO2)N1CCCCC1 [Piperine],177.2,
COc1cc(/C=C/C(=O)N2CCC=CC2=O)cc(OC)c1OC [Piperlongumine],179.46,
C[C@]12C=CC(=O)C=C1CC[C@@H]1[C@@H]2C(=O)C[C@@]2(C)[C@H]1CC[C@]2(O)C(=O)CO [Prednisone],185.04,191.16
CO[C@H]1C=CO[C@@]2(C)Oc3c(C)c(O)c4c(O)c(c(/C=N/N5CCN(C)CC5)c(O)c4c3C2=O)NC(=O)/C(C)=C\C=C/[C@H](C)[C@H](O)[C@@H](C)[C@@H](O)[C@@H](C)[C@H](OC(C)=O)[C@@H]1C [Rifampicin],284.23,284.94
C=C(C)[C@H]1Cc2c(ccc3c2O[C@@H]2COc4cc(OC)c(OC)cc4[C@@H]2C3=O)O1 [Rotenone],195.49,198.71
NC(=O)c1ccccc1O [Salicylamide],124.71,122.43
O=C(O)c1ccccc1O [Salicylic acid],,121.24
COc1ccc(-c2cc(=O)c3c(O)cc(O)c(-c4cc(-c5cc(=O)c6c(O)cc(OC)cc6o5)ccc4OC)c3o2)cc1 [Sciadopitysin],235.37,235.5
C=C[C@](C)(O)CC[C@@H]1[C@@]2(C)CCCC(C)(C)[C@@H]2CC[C@@]1(C)O [Sclareol],,178.93
C=C[C@H]1[C@H](O[C@@H]2O[C@H](CO)[C@@H](O)[C@H](O)[C@H]2O)OC=C(C(=O)OC)[C@H]1CC(=O)O [Secoxyloganin],,190.5
CC(C)=CCCC1(C)CCC2(C)C3CCC4(C)C(C)C(=O)CCC4C3(C)CCC2(C)C1 (centres undefined) [Shionone],211.34,
COc1cc([C@H]2Oc3cc([C@H]4Oc5cc(O)cc(O)c5C(=O)[C@@H]4O)ccc3O[C@@H]2CO)ccc1O [Silybin],208.54,204.63
CCC(C)(C)C(=O)O[C@H]1C[C@@H](C)C=C2C=C[C@H](C)[C@H](CC[C@@H]3C[C@@H](O)CC(=O)O3)[C@H]21 [Simvastatin],207.6,205.74

SMILES,collision cross section (ion adduct: [M+H]+) [Å²],collision cross section (ion adduct: [M-H]-) [Å²]
COc1cc2oc(-c3ccc(O)cc3)cc(=O)c2c(O)c1C1OC(CO)C(O)C(O)C1OC1OC(CO)C(O)C(O)C1O (centres undefined) [Spinosin],235.99,239.41
Nc1ccc(S(=O)(=O)[N-]c2cnc3ccccc3n2)cc1.[Na+] [Sulfaquinoxaline sodium],184.69,
Cc1noc(NS(=O)(=O)c2ccc(N)cc2)c1C [Sulfisoxazole],162.69,162.87
COc1cc(C(=O)O)cc(OC)c1O [Syringic acid],,148.59
C=CC[C@@H]1/C=C(/C)C[C@H](C)C[C@H](OC)[C@H]2O[C@@](O)(C(=O)C(=O)N3CCCC[C@H]3C(=O)O[C@H](/C(C)=C/[C@@H]3CC[C@@H](O)[C@H](OC)C3)[C@H](C)[C@@H](O)CC1=O)[C@H](C)C[C@@H]2OC [Tacrolimus],,281.46
O=c1[nH]c(=O)n(C2CCCO2)cc1F (centres undefined) [Tegafur],,142.34
COc1cc(CCC(=O)CC(=O)CCc2ccc(O)c(OC)c2)ccc1O [Tetrahydrocurcumin],,185.55
Cn1c(=O)c2c(ncn2CC(=O)O)n(C)c1=O [Theophylline-7-acetic acid],152.03,
Cn1c(=O)c2[nH]cnc2n(C)c1=O [Theophylline],137.12,
Nc1nc(=S)c2[nH]cnc2[nH]1 [Thioguanine],132.57,128.86
Cn1cncc1[C@@](N)(c1ccc(Cl)cc1)c1ccc2c(c1)c(-c1cccc(Cl)c1)cc(=O)n2C [Tipifarnib],215.34,215.68
NC[C@H]1O[C@H](O[C@H]2[C@H](O)[C@@H](O[C@H]3O[C@H](CO)[C@@H](O)[C@H](N)[C@H]3O)[C@H](N)C[C@@H]2N)[C@H](N)C[C@@H]1O [Tobramycin],202.65,203.66
O=C(Nc1ccc(Cl)cc1)Nc1ccc(Cl)c(Cl)c1 [Triclocarban],173.83,178.67
O=P(OCCCl)(OCCCl)OCCCl [Tris(2-chloroethyl) phosphate],151.08,
CCC(=O)c1ccc(O)cc1 [Vanatone],130,131.83
C[C@H]1O[C@@H](O[C@@H]2[C@@H](O)[C@H](O)[C@@H](CO)O[C@H]2c2c(O)cc(O)c3c(=O)cc(-c4ccc(O)cc4)oc23)[C@@H](O)[C@@H](O)[C@@H]1O [Vitexin-2''-O-rhamnoside],221.54,227.62
COc1cc(O)c2c(c1)oc(=O)c1c3cc(O)c(O)cc3oc21 [Wedelolactone],167.93,168.67
COc1cc(CCC(C)=O)ccc1O [Zingerone],,146.57
CC(=O)/C=C/c1ccccc1 [trans-4-phenylbut-3-en-2-one],131.24,
COc1ccc(C=Cc2cc(OC)cc(=O)o2)cc1 [yangonin],163.31,
